{"source": "patent US20070082055A1", "about": "“Stable micronized candesartan cilexetil and methods for preparing thereof” (priority 2005, published 2007)", "key": {"[1]": {"conditions": "for Desethyl-CNS: as obtained"}, "[2]": {"conditions": "cited from earlier work"}, "[3]": {"conditions": "after maintaining for 2 weeks (oven at 55° C.)"}, "[4]": {"conditions": "Table 3, after 2 weeks at 55° C."}}, "note": "“And” between values parts separate entries of the source, which are not always exact repeats. Identical values can stand only once. Like-named read-outs stand apart in the source and are kept apart here.", "data": [{"smiles": "CCOc1nc2cccc(C(=O)OC(C)OC(=O)OC3CCCCC3)c2n1Cc1ccc(-c2ccccc2-c2nnn[nH]2)cc1", "note": "(centres unmarked) [Sample 1, candesartan cilexetil]", "values": [{"measurement": "1-N-ethyl CNS", "setting": "[1]; Table 3, before storage", "value": "LTDL (LTDL means less than detection limit)"}, {"measurement": "2-N-ethyl CNS", "setting": "[1]; Table 3, before storage", "value": "LTDL (LTDL means less than detection limit)"}, {"measurement": "CNS desethyl", "setting": "[1]; Table 3, before storage", "value": 0.04, "unit": "w/w %"}]}, {"smiles": "CCOc1nc2cccc(C(=O)OC(C)OC(=O)OC3CCCCC3)c2n1Cc1ccc(-c2ccccc2-c2nnn[nH]2)cc1", "note": "(centres unmarked) [candesartan cilexetil]", "values": [{"measurement": "CNS-desethyl", "setting": "[1]; fine particle size, time of slurry 3 hr, 2 weeks", "value": 0.10, "unit": "w/w %"}, {"measurement": "CNS-desethyl", "setting": "[1]; fine particle size, time of slurry 3 hr, T = 0", "value": 0.07, "unit": "w/w %"}, {"measurement": "CNS-desethyl", "setting": "[1]; fine particle size, time of slurry 6 hr, 2 weeks", "value": 0.07, "unit": "w/w %"}, {"measurement": "CNS-desethyl", "setting": "[1]; fine particle size, time of slurry 6 hr, T = 0", "value": 0.06, "unit": "w/w %"}, {"measurement": "CNS-desethyl", "setting": "[1]; fine particle size, time of slurry 9 hr, 2 weeks", "value": 0.06, "unit": "w/w %"}, {"measurement": "CNS-desethyl", "setting": "[1]; fine particle size, time of slurry 9 hr, T = 0", "value": 0.05, "unit": "w/w %"}, {"measurement": "CNS-desethyl", "setting": "[1]; fine particle size, time of slurry 13 hr, 2 weeks", "value": 0.06, "unit": "w/w %"}, {"measurement": "CNS-desethyl", "setting": "[1]; fine particle size, time of slurry 13 hr, T = 0", "value": 0.05, "unit": "w/w %"}, {"measurement": "CNS-desethyl", "setting": "[1]; fine particle size, time of slurry 23 hr, 2 weeks", "value": 0.05, "unit": "w/w %"}, {"measurement": "CNS-desethyl", "setting": "[1]; fine particle size, time of slurry 23 hr, T = 0", "value": 0.04, "unit": "w/w %"}]}, {"smiles": "CCOc1nc2cccc(C(=O)OC(C)OC(=O)OC3CCCCC3)c2n1Cc1ccc(-c2ccccc2-c2nnn[nH]2)cc1", "note": "(racemic) [Candesartan cilexetil, (±)-1-[[(cyclohexyloxy)carbonyl]oxy]ethyl-2-ethoxy-1-[[2′-(1H-tetrazol-5-yl)[1,1 ′biphenyl]-4-yl]methyl]-1H-benzimidazole-7-carboxylate]", "values": [{"measurement": "CNS-desethyl", "setting": "[1]; time of slurry 2 hr, 2 weeks", "value": 0.07, "unit": "w/w %"}, {"measurement": "CNS-desethyl", "setting": "[1]; time of slurry 2 hr, T = 0", "value": 0.03, "unit": "w/w %"}, {"measurement": "CNS-desethyl", "setting": "[1]; time of slurry 20 hr, 2 weeks", "value": 0.03, "unit": "w/w %"}, {"measurement": "CNS-desethyl", "setting": "[1]; time of slurry 20 hr, T = 0", "value": "LTDL (LTDL means less than detection limit)"}, {"measurement": "solubility in methanol", "setting": "[2]; methanol", "value": "sparingly soluble"}, {"measurement": "solubility in water", "setting": "[2]; water", "value": "sparingly soluble"}]}, {"smiles": "CCOc1nc2cccc(C(=O)OC(C)OC(=O)OC3CCCCC3)c2n1Cc1ccc(-c2ccccc2-c2nnn[nH]2)cc1", "note": "(centres unmarked) [Product, candesartan cilexetil]", "values": [{"measurement": "1-N-ethyl CNS", "setting": "[1]; Table 3, before storage", "value": "LTDL (LTDL means less than detection limit)"}, {"measurement": "2-N-ethyl CNS", "setting": "[1]; Table 3, before storage", "value": 0.03, "unit": "w/w %"}, {"measurement": "CNS desethyl", "setting": "[1]; Table 3, before storage", "value": 0.05, "unit": "w/w %"}, {"measurement": "level of desethyl-CNS", "setting": "[1]; before storage", "value": 0.05, "unit": "% w/w by HPLC"}]}, {"smiles": "CCOc1nc2cccc(C(=O)OC(C)OC(=O)OC3CCCCC3)c2n1Cc1ccc(-c2ccccc2-c2nnn[nH]2)cc1", "note": "(centres unmarked) [micronized material, candesartan cilexetil]", "values": [{"measurement": "level of desethyl-CNS", "setting": "[1]; [3]", "value": 0.14, "unit": "% w/w by HPLC"}, {"measurement": "level of desethyl-CNS", "setting": "[1]; before storage", "value": 0.04, "unit": "% w/w by HPLC"}]}, {"smiles": "CCOc1nc2cccc(C(=O)OC(C)OC(=O)OC3CCCCC3)c2n1Cc1ccc(-c2ccccc2-c2nnn[nH]2)cc1", "note": "(centres unmarked) [micronized CNS-Cryst, candesartan cilexetil]", "values": [{"measurement": "level of desethyl-CNS", "setting": "[1]; [3]", "value": 0.41, "unit": "% w/w by HPLC"}, {"measurement": "level of desethyl-CNS", "setting": "[1]; before storage", "value": 0.24, "unit": "% w/w by HPLC"}]}, {"smiles": "CCOc1nc2cccc(C(=O)OC(C)OC(=O)OC3CCCCC3)c2n1Cc1ccc(-c2ccccc2-c2nnn[nH]2)cc1", "note": "(centres unmarked) [Fine particle size, candesartan cilexetil]", "values": [{"measurement": "2-N-ethyl CNS", "setting": "[1]; 2 weeks, HPLC", "value": "0.09 w/w % and 0.29 w/w %"}, {"measurement": "CNS desethyl", "setting": "[1]; 2 weeks, HPLC", "value": "0.14 w/w % and 0.41 w/w %"}, {"measurement": "CNS desethyl", "setting": "[1]; T = 0, HPLC", "value": "0.04 w/w % and 0.24 w/w %"}]}, {"smiles": "CCOc1nc2cccc(C(=O)OC(C)OC(=O)OC3CCCCC3)c2n1Cc1ccc(-c2ccccc2-c2nnn[nH]2)cc1", "note": "(centres unmarked) [candesartan cilexetil Form I, candesartan cilexetil]", "values": [{"measurement": "level of desethyl-CNS", "setting": "[1]; [3]", "value": 0.07, "unit": "% w/w by HPLC"}, {"measurement": "Desethyl-CNS", "setting": "[1]; before storage", "value": 0.03, "unit": "% by area HPLC"}]}, {"smiles": "CCOc1nc2cccc(C(=O)OC(C)OC(=O)OC3CCCCC3)c2n1Cc1ccc(-c2ccccc2-c2nnn[nH]2)cc1", "note": "(centres unmarked) [stable candesartan cilexetil Form I, candesartan cilexetil]", "values": [{"measurement": "level of desethyl-CNS", "setting": "[1]; after maintaining for 2 weeks (oven at 55° C.), listed as obtained product", "value": 0.10, "unit": "% w/w by HPLC"}, {"measurement": "Desethyl-CNS", "setting": "[1]; before storage", "value": 0.08, "unit": "%"}]}, {"smiles": "CCOc1nc2cccc(C(=O)OC(C)OC(=O)OC3CCCCC3)c2n1Cc1ccc(-c2ccccc2-c2nnn[nH]2)cc1", "note": "(centres unmarked) [Sample 1B, candesartan cilexetil]", "values": [{"measurement": "1-N-ethyl CNS", "setting": "[1]; [4]", "value": 0.04, "unit": "w/w %"}, {"measurement": "2-N-ethyl CNS", "setting": "[1]; [4]", "value": 0.15, "unit": "w/w %"}, {"measurement": "CNS desethyl", "setting": "[1]; [4]", "value": 0.20, "unit": "w/w %"}]}, {"smiles": "CCOc1nc2cccc(C(=O)OC(C)OC(=O)OC3CCCCC3)c2n1Cc1ccc(-c2ccccc2-c2nnn[nH]2)cc1", "note": "(centres unmarked) [Product B, candesartan cilexetil]", "values": [{"measurement": "1-N-ethyl CNS", "setting": "[1]; [4]", "value": "LTDL (LTDL means less than detection limit)"}, {"measurement": "2-N-ethyl CNS", "setting": "[1]; [4]", "value": 0.03, "unit": "w/w %"}, {"measurement": "CNS desethyl", "setting": "[1]; [4]", "value": 0.05, "unit": "w/w %"}]}, {"smiles": "CCOc1nc2cccc(C(=O)OC(C)OC(=O)OC3CCCCC3)c2n1Cc1ccc(-c2ccccc2-c2nnn[nH]2)cc1", "note": "(centres unmarked) [Slurried fine particle size sample, candesartan cilexetil]", "values": [{"measurement": "CNS desethyl", "setting": "[1]; 2 weeks, HPLC", "value": "0.10 w/w % and 0.06 w/w %"}, {"measurement": "CNS desethyl", "setting": "[1]; T = 0, HPLC", "value": "0.08 w/w % and 0.03 w/w %"}]}, {"smiles": "CCOc1nc2cccc(C(=O)OC(C)OC(=O)OC3CCCCC3)c2n1Cc1ccc(-c2ccccc2-c2nnn[nH]2)cc1", "note": "(centres unmarked) [stable micronized candesartan Form I, candesartan cilexetil]", "values": [{"measurement": "desethyl-CNS level", "setting": "[1]; after maintaining for 2 weeks", "value": 0.06, "unit": "% area by HPLC"}, {"measurement": "level of desethyl-CNS", "setting": "[1]; before storage", "value": 0.03, "unit": "% w/w by HPLC"}]}]}
